Measurements from patent US20020076693A1, “Novel cell surface receptor for HIV retroviruses, therapeutic and diagnostic uses” (priority 1997, published 2002).

Key:
P95/nucleolin = P95/nucleolin (Homo sapiens, UniProt P19338); assay: Saturation of binding sites of P95/nucleolin
HIV-1 Bal = assay: HIV entry into HeLa P4-C5 cells (β-galactosidase), HIV-1 Ba-L; assay type: cell-based; settings: HeLa P4-C5, HIV-1 Bal; read-out: IC50, inhibition of HIV entry
cell-surface P95 = cell-surface P95 (Homo sapiens, UniProt P19338); assay: Recovery of cell-surface P95 complexed to biotin-labeled 5[Kψ(CH2N)PR]-TASP, competition by unlabeled constructs; settings: 50 μM unlabeled, 5 μM biotin-labeled 5[Kψ(CH2N)PR]-TASP
cell-surface P95, sequence (P19338 whole entry): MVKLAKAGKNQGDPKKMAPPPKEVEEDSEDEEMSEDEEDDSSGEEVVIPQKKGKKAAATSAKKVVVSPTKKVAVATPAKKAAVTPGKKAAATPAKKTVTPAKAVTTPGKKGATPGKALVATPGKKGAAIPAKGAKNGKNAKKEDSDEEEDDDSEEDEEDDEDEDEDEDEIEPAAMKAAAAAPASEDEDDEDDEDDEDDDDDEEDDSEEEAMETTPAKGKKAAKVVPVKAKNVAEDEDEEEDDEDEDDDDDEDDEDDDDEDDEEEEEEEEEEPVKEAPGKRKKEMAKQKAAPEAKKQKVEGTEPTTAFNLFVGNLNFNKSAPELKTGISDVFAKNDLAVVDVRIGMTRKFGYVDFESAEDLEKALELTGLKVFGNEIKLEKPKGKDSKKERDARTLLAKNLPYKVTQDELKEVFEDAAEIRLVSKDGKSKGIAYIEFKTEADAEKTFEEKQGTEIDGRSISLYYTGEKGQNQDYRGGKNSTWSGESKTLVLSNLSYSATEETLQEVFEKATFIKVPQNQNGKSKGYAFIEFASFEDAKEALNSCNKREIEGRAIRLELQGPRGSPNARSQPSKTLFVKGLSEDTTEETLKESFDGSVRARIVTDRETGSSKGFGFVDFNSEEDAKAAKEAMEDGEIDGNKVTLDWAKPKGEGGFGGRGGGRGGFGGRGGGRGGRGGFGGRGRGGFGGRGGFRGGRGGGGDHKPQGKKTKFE
Protocol: Cells were then washed extensively before preparation of cell extracts. The complexes formed between the biotin-labeled TASP constructs and any cell-surface protein were then recovered by purification using avidin-agarose (“Materials and Methods”). […] Lane 1 “Extract” represents the ligand blot analysis of crude CEM cell extracts; material corresponding to 10^6 cells.
Cells were then washed in FACS buffer (2×15 ml) and nucleus-free cell extracts were prepared using buffer E (150 ml). Such extracts were first diluted in PBS containing 1 mM EDTA (600 μl) before the addition of 100 μl avidin-agarose (ImmunoPure Immobilized Avidin from Pierce Chemical Company, U.S.A.) to capture the biotin-labeled TASP complexed to its cell surface ligand(s). These suspensions were incubated at 4° C. for 2 hr, and the avidin-agarose bound proteins were washed batchwise with PBS containing 1 mM EDTA (5×5 ml). Finally, the avidin-agarose pellet was resuspended in 100 ml of 2-fold concentrated electrophoresis sample buffer and heated at 95° C. for 5 min.

CEM cells = assay: FACS binding of labeled TASP constructs to the cell-surface ligand; set-up: species or system human; settings: biotin-labeled constructs, dose for 50% labeling, read-out: Affinity to bind TASP-ligand (EC50), 50% effective dose
Excerpt: The cells were then washed twice with FACS buffer and fixed in 1% formaldehyde in FACS buffer. […] The fluorescence intensity was monitored by FACS analysis using Lysis II Software in FIGS. 3/4 and Tables 1/2, or Cell Quest™ Software (Beckton Dickinson and Apple Computer) in FIG. 5 +L.

CD4 = CD4 (Homo sapiens, UniProt P01730); assay: BIAcore biosensor binding to soluble CD4; settings: binding protein soluble recombinant CD4, BIAcore
HIV-1 JRCSF = assay: HIV entry into HeLa P4-C5 cells (β-galactosidase), HIV-1 JRCSF; assay type: cell-based; settings: HeLa P4-C5, HIV-1 JRCSF; read-out: IC50, inhibition of HIV entry
VSV/HIV = assay type: cell-based
P40/PHAPII = P40/PHAPII (Homo sapiens, UniProt Q01105); assay: Saturation of binding sites of P40/PHAPII
P40/PHAPII, sequence (Q01105 1-277 isoform Q01105-2): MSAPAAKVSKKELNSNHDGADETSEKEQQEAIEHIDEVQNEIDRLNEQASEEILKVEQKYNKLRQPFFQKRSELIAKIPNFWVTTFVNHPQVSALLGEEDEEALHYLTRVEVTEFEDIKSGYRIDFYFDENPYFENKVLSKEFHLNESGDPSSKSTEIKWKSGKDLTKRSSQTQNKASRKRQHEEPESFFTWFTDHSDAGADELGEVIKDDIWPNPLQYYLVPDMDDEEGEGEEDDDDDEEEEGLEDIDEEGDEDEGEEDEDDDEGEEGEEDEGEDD

[1] = tested on: HIV-1 ELI, Ba-L, SF162, UGO29A, and Retrovir resistant isolate; assay: Infection of PBMC by different HIV-1 isolates (p24 in culture medium); assay type: cell-based; settings: p24 at 6 days post-infection, range over the isolates, read-out: IC50 values, virus production in PBMC
Excerpt: Virus production was monitored by the concentration of p24 in the culture medium at 6 days post-infection (3 +L0). The HIV-1 isolates were:
Virus production was monitored by the concentration of p24 in the culture medium at 7 days post-infection.

HIV-1 Ada-M [2] = assay: Infection of PBMC by HIV-1 Ada-M (p24); assay type: cell-based; settings: p24 at 6 days post-infection
Excerpt: Virus production was monitored by the concentration of p24 in the culture medium at 6 days post-infection (3 +L0).

HIV-1 Lai = assay: Inhibition of HIV-1 Lai infection of CEM cells (p24 production); assay type: cell-based
Protocol: Infection of CEM cells with the HIV-1 Lai isolate was carried out as described previously (Callebaut et al., 1996). For the assay of the inhibitory effect of rabbit antisera or purified antibodies, CEM cells were first incubated (15-30 min, at room temperature) in the presence of different concentrations of each antibody preparation before infection using 0.2 synchronous dose of HIV-1 Lai as described before (Laurent-Crawford and Hovanessian, 1993). HIV production was estimated at different days post-infection (p.i.) by monitoring the HIV-1 major core protein p24 in the culture supernatant (Callebaut et al., 1996). The concentration of p24 was measured by p24 Core Profile ELISA (Du Pont). For a single cycle of HIV, AZT ([…]) was added at 8 hr post-infection to inhibit multiple cycles of virus infection; HIV production was monitored at 4 days post-infection (Laurent-Crawford and Hovanessian, 1993).

[3] = Stability of TASP constructs in serum (residual activity to bind the cell-surface ligand); assay type: in vitro ADME
[4] = tested on: HIV-1 pseudotyped Mo-MLV virus; assay: Infection of CEM cells by HIV-1 pseudotyped Mo-MLV virus (p24); settings: p24 at 48 hours p.i., AZT 5 μM, TASP 5 μM
Protocol: CEM cells (2×10^5) were infected with the HIV-1 pseudoryped Mo-MLV virus (Experimental procedure) at 95 ng of p24/ml, in the absence (histogram Control) or presence of different additions (as indicated). The infection was monitored by the production of p24, which was measured in the culture supernatant at 48 hours p.i. The mean±SD of duplicate samples is given. Treatment of cells with the different antibodies was as in FIG. 6 +L. For a control of infection, cells were pretreated with 5 μM AZT before infection.
Hela cells were cotransfected by electroporation with plasmids pNL4-3 defective in env gene (Borman et al., 1995) and pE4070A expressing amphotrope envelope glycoproteins of Mo-MLV (Battini et al., 1996). Electroporation (Schwartz et al., 1996) was performed at 200 V, 960 μF, using a 4 mm wide cuvettes in a BIO-Rad Gene Pulser. The pseudotyped virus was recovered from the culture supernatant after 48 hours of culturing.

HIV-1 Ada-M [5] = assay: HIV-1 Ada-M entry into HeLa P4-C5 cells (β-galactosidase); assay type: cell-based; settings: HeLa P4-C5, β-galactosidase at 48 hours
Protocol: HeLa cells (P4-C5) were treated (incubation at 37° C., 30 min) with AZT (5 μM), (α-CD4 mAb CBT4 (5 μg/ml) before infection with the different HIV isolates in order to obtain the background β-galactosidase activity compared to untreated cells (Control). During the same time, the different HIV isolates were treated (incubation at room temperature, 15 min) with 1, 5, and 10 μg/ml of heparin before addition to untreated cells. The b-galactosidase activity was assayed at 48 hours post-infection as a measure of HIV entry (3 +L7).

P95/nucleolin, sequence (P19338 whole entry): as the sequence (P19338 whole entry) above

Substance: 5[Kψ(CH2N)PR]-TASP
- concentration for 100% saturation of the binding sites (P95/nucleolin): 2 µM
- IC50 (HIV-1 Bal): 300 nM
- isolation of cell-surface P95 abolished by excess unlabeled construct (cell-surface P95): completely abolished
- EC50 (CEM cells): 150 nM
- ka (association rate constant) (CD4; listed as 5(KΨ(CH2N)PR)TASP): nb^b
- ka (association rate constant) (CD4; listed as 5[KΨ(CH2N)PR]-TASP): No binding
- IC50 (HIV-1 JRCSF): 300 nM
- effect on VSV-HIV pseudotyped virus entry and replication (VSV/HIV): had no effect
- concentration for 100% saturation of the binding sites (P40/PHAPII): 4 µM
- IC50 [1]: 50 to 500 nM
- effect on HIV-1 Ada-M infection of PBMC (HIV-1 Ada-M [2]): no effect
- inhibition of virus production (HIV-1 Lai; 5 mM added one hour before or together with the virus): more than 90%
- inhibitory effect when added at 8 hours p.i. (HIV-1 Lai; CEM cells): almost no effect
- HIV entry monitored by intracellular concentration of p24 (HIV-1 Lai; CEM cells, 1 hour incubation with virus, 5-10 μM): inhibited almost completely
- combined action with AZT against an HIV infection (HIV-1 Lai; CEM cells, HIV-1 Lai, p24 at 4 days p.i.): synergistic action
- IC50 (HIV-1 Lai; CEM cells, construct added 15 min before HIV-1, p24 at 4 days p.i., read-out: Inhibition of HIV infection (IC50), 50% dose): 500 nM
- inhibition of HIV-1 Lai infection in CEM cells (HIV-1 Lai; TASP 5 μM, p24 at 5 days p.i.): more than 95%
- inhibition of virus infection (HIV-1 Lai; TASP 10 μM, mAb OKT4A 10 mg/ml): complete inhibition
- higher activity compared to non-reduced counterpart 5[KPR]-TASP (HIV-1 Lai; both inhibition of HIV infection and affinity to bind the cell-surface ligand): ≥ 10 fold
- activity retained after 18 hours of incubation in serum [3]: more than 80%
- inactivated after 18 hours of incubation in sera [3]: less than 20%
- effect on infection by HIV-1 pseudotyped Mo-MLV virus [4]: no significant effect
- effect on HIV-1 Ada-M entry (HIV-1 Ada-M [5]): enhances
